# Experimental data taken from patent US8969303B2, “Tocotrienol esters” (First Tech International Limited, priority 2010, dated 2015).
# Key:
# [1] = system: +SA mammary epithelial cells; experiment: Antiproliferative MTT assay on +SA mammary epithelial cells; assay type: cell-based, mouse; details: malignant mice +SA mammary cells, 24 hour treatment, MTT
# Excerpt: +SA mammary epithelial cell lines were serially passaged at subconfluent cell density. The +SA cell line was derived from an adenocarcinoma that developed spontaneously in a BALB/c female mouse. That cell line is discussed in more detail in Anderson, L. W., Danielson, K. G., Hosick, H. L. Eur. J. Cancer Clin. Oncol. 1981, 17, 1001-1008, Danielson, K G., Anderson, L. W., Hosick, H. L. Cancer Res. 1980, 40, 1812-1819.31, and Anderson, L. W., Danielson, K. G., Hosick, H. L. In Vitro. 1979, 15, 841-843. Cell culture conditions were similar to those described in detail in Shah, S. J., Gapor, A., Sylvester, P. W. Nutr. Cancer. 2003, 45, 236-246, Shah, S. J., Sylvester, P. W. Biochem. Cell. Biol. 2005, 83, 86-95, Wali, V. B., Sylvester, P. W. Lipids, 2007, 42, 1113-1123, and Wali, V. B., Bachawal, S. V., Sylvester, P. W. Exp. Biol. Med. (Maywood) 2009, 234, 639-650. Briefly, +SA cells were maintained in serum-free defined medium consisting of Dulbecco's modified Eagle's medium (DMEM)/F12 containing 5 mg/ml bovine serum albumin (BSA), […], 100 U/ml soybean trypsin inhibitor, 100 U/ml penicillin, 0.1 mg/ml streptomycin, […], and 10 ng/ml epidermal growth factor. For subculturing, cells were rinsed twice with sterile Ca^2+ and Mg^2+-free phosphate buffered saline (PBS) and incubated in 0.05% trypsin containing 0.025% EDTA in PBS for 5 minutes at 37° C. The released cells were centrifuged, resuspended in serum-free defined media and counted using a hemocytometer. A stock solution of the Compounds was prepared in DMSO. Once dissolved, this solution was added to a small volume of sterile 10% BSA in water and incubated overnight at 37° C. This solution conjugated to BSA was used to prepare various concentrations (0-40 μM) of tocotrienol analogs. DMSO was added to all treatment media such that the final DMSO concentration was the same in all treatment groups within a given experiment and was always less than 0.1%. For cytotoxicity studies, cells were seeded at a density of 5×10^4 cells/well (6 wells/group) in 24-well culture plates and allowed to grow in serum-free control defined media. After a 3 day incubation period (approximately 70% confluency), cells were divided equally into various treatment groups and exposed to their respective treatments for a 24 hour incubation period. Following the 24 hour treatment period, cell viability was measured using the MTT assay. All materials were purchased from Sigma Chemical Company (St. Louis, Mo.) unless otherwise stated.
# +SA mammary epithelial cell viable number was determined by the 3-(4,5-dimethylthiazol-2-yl)-2,5-diphenyl tetrazolium bromide (MTT) colorimetric assay. On the day of assay, treatment medium was replaced with fresh growth medium containing 0.42 mg/ml MTT, and the cells in 24-well plates were incubated at 37° C. for 4 hours. Afterward, the medium was removed, and the MTT crystals were dissolved in isopropyl alcohol (1 ml/well). The optical density of each sample was read at 570 nm on a microplate reader (SpectraCount, Packard BioScience Company), against a blank prepared from cell-free cultures. The number of cells/well was calculated against a standard curve prepared by plating various concentrations of cells, as determined by hemocytometer, at the start of each experiment.
# Differences among the various treatment groups in +SA cell cytotoxic studies were determined by analysis of variance (ANOVA) followed by Dunnett's t-test. The difference of P<0.05 was considered to be statistically significant as compared with vehicle-treated controls. Linear regression analysis of treatment effects on viable cell number in growth and cytotoxicity studies was used to determine the 50% growth inhibition concentration (IC50) for individual treatments.
# [2] = Water solubility in phosphate buffer; assay type: physicochemical; details: phosphate buffer pH 7.4, 25° C.
# Method: About 5.6 mg of each of α-tocotrienol and Compound 6 were added to 3 mL of phosphate buffer (pH 7.4) in amber vials. Tested solutions were maintained shaking under at 25° C. for 24 h in a constant-temperature water bath. Each solution was then centrifuged at 5,000 rpm for 10 min before collecting samples from the clear supernatant at 0, 1, 2, 4, 6, and 24 h. Each compound concentration in the aspirates was determined by HPLC. […] The solubility of α-tocotrienol maleate (Compound 6) was nearly 1000 fold that of its parent α-tocotrienol.
# A Shimadzu HPLC system (Columbia, Md.) was used for quantification of α-tocotrienol and Compound 6. This system is composed of SIL 20-AHT autosampler, SPD-20A UV/VIS detector, and LC-20AB pump connected to a Dgu-20A3 degasser. Data acquisition was achieved by LC Solution software version 1.22 SP1 Shimadzu. The following chromatographic conditions were used: […] (250×4.6 mm id; Phenomenex, Torrance, Calif.), flow rate was adjusted to 1.0 mL/min, and λ was set at 295 nm. For α-tocotrienol solubility and stability studies, an isocratic elution with MeOH-EtOH—CH3CN (40:30:30, v/v/v) as mobile phase for 10 min. α-tocotrienol was eluted at 6.7 min. […] Each compound was quantified using its calibration curve for compounds peak area versus its concentration.
# [3] = Stability in phosphate buffer; assay type: physicochemical; details: 24 h, 500 μg/mL, pH 7.4
# Method: The stability of each of α-tocotrienol and Compound 6 was studied at 37° C. in phosphate buffer (pH 7.4). In amber vials, 500 μg/mL of each compound were dissolved in the buffer and the solution was incubated at 37° C. At interval times (0, 0.5, 1, 2, 4, 6, and 24 h), 50 μL it samples were collected and equal volumes of methanol were added to each sample followed by HPLC analysis.
# (§1) A Shimadzu HPLC system (Columbia, Md.) was used for quantification of α-tocotrienol and Compound 6. This system is composed of SIL 20-AHT autosampler, SPD-20A UV/VIS detector, and LC-20AB pump connected to a Dgu-20A3 degasser. Data acquisition was achieved by LC Solution software version 1.22 SP1 Shimadzu. The following chromatographic conditions were used: […] (250×4.6 mm id; Phenomenex, Torrance, Calif.), flow rate was adjusted to 1.0 mL/min, and λ was set at 295 nm. For α-tocotrienol solubility and stability studies, an isocratic elution with MeOH-EtOH—CH3CN (40:30:30, v/v/v) as mobile phase for 10 min. α-tocotrienol was eluted at 6.7 min. For the simultaneous separation of α-tocotrienol and Compound 6 the following gradient elution was also used starting with H2O— MeOH—N(Et)3 (10:90:0.05, v/v/v) for 5 min, followed by isocratic MeOH—N(Et)3 (100:0.05, v/v) for another 10 min. The retention times were 4 and 14.1 for Compound 6 and α-tocotrienol, respectively. Standard curves for α-tocotrienol and Compound 6 in MeOH were prepared in the range of 0.4-50 μg/mL and 1-1000 μg/mL, respectively. Each compound was quantified using its calibration curve for compounds peak area versus its concentration.
# [4] = Stability in rat plasma; assay type: in vitro ADME; details: 37° C.
# Method: The stability of each of α-tocotrienol and Compound 6 was studied at 37° C. in rat plasma. In amber vials, 50 μg/mL of each Compound were dissolved in the plasma. The solution was incubated at 37° C., and at interval times (0, 0.5, 1, 2, 4, 6, and 24 h), 50 μL samples were taken and mixed with 100 μL of methanol followed by centrifugation at 14,000 rpm for 10 min. Each supernatant was analyzed by HPLC. In rat plasma, Compound 6 concentration was 100% stable over the first 3 h. Its concentration then started to decrease at the […] to become 81% and 77% of the initial concentration, respectively. After 24 hours, only 43% of the initial concentration of Compound 6 was detectable. The slow rate of hydrolysis of Compound 6 compared to α-tocotrienol may bode well for expected enhanced metabolic stability.
# as §1
smiles,measurement,setting,value
"CC(C)=CCC/C(C)=C/CC/C(C)=C/CC[C@]1(C)CCc2c(C)c(OC(=O)/C=C\C(=O)O)c(C)c(C)c2O1 [Compound 6, (Z)-4-oxo-4-((R)-2,5,7,8-tetramethyl-2-((3E,7E)-4,8,12-trimethyltrideca-3,7,11-trienyl)chroman-6-yloxy)but-2-enoic acid]",IC50,"[1]; Mus musculus, Epithelial cell, 24 h",510 nM
same,IC50,[1],520 nM
same,solubility relative to parent α-tocotrienol,[2],~1000 fold
same,chemical stability relative to the zero time concentration,[3],100%
same,% of the initial concentration in rat plasma,[4]; 4th hour,81%
same,% of the initial concentration in rat plasma,[4]; 5th hour,77%
same,% of the initial concentration in rat plasma,[4]; after 24 hours,43%
same,concentration stable in rat plasma,[4]; over the first 3 h,100%
